From patent US20250042896A1, “POLYCYCLIC COMPOUND AS CBL-B INHIBITOR” (HAINAN SIMCERE ZAIMING PHARMACEUTICAL CO., LTD., priority 2021, published 2025)

Molecular target: Cbl-b protein and UbcH5B-Ub (Homo sapiens (Human), UniProt Q13191)
Experiment: Cbl-b activity assay (HTRF, interaction between Cbl-b protein and UbcH5B-Ub)
Assay type: biochemical
Conditions: inhibition of interaction between Biotin-Cbl-b protein and Eu-Ubquitin-UbcH5B, HTRF signal 665 nm/615 nm
Protocol: Experiment purpose: Testing of inhibitory activity of compounds on the interaction between Cbl-b protein and UbcH5B-Ub
Experimental method: Eu-Ubquitin-UbcH5B was prepared by incubating Eu-Ubquitin (Cisbio) with UbcH5B (ENZO), E1 (ENZO) at 37° C. for 4 hours. Eu-Ubquitin-UbcH5B was aliquoted and stored at −80° C. Cbl-b activity assay was performed in 384-well plates (Perkin Elmer). 100 nL of 3-fold serial dilutions of compounds (final concentration 10 μM-0.5 nM, starting concentration 10 μM, 3-fold dilution, 10 points, 10th point being 0.5 nM) and 5 μL of 50 nM Biotin-Cbl-b protein (Sigma) were incubated for 1 hour at room temperature, and the reaction buffer was 50 mM HEPES pH 7.0 (Gibco), 100 mM NaCl (Sigma), 0.01% Triton X-100 (Sigma), 0.01% BSA (Sigma) and 1 mM DTT (Invitrogen). 5 μL of Src mixed solution (40 nM Src (R&D), 2 mM ATP (Sigma), 10 mM MgCl2 (Sigma)) was added to the reaction plate and incubated at room temperature for 3 hours. 10 μL of detection solution (12.5 nM Strepdividin-XL665 (Cisbio), 500 nM Eu-Ubquitin-UbcH5B, […] (Invitrogen), 0.004% BSA (Sigma)) was added to the reaction plate, incubated overnight at room temperature, and the HTRF signal (665 nm/615 nm) was read on Envision (Perkin Elmer). IC50 was calculated using IDBS XLfit.

Sequence of Cbl-b protein and UbcH5B-Ub (Q13191 whole entry, species assumed): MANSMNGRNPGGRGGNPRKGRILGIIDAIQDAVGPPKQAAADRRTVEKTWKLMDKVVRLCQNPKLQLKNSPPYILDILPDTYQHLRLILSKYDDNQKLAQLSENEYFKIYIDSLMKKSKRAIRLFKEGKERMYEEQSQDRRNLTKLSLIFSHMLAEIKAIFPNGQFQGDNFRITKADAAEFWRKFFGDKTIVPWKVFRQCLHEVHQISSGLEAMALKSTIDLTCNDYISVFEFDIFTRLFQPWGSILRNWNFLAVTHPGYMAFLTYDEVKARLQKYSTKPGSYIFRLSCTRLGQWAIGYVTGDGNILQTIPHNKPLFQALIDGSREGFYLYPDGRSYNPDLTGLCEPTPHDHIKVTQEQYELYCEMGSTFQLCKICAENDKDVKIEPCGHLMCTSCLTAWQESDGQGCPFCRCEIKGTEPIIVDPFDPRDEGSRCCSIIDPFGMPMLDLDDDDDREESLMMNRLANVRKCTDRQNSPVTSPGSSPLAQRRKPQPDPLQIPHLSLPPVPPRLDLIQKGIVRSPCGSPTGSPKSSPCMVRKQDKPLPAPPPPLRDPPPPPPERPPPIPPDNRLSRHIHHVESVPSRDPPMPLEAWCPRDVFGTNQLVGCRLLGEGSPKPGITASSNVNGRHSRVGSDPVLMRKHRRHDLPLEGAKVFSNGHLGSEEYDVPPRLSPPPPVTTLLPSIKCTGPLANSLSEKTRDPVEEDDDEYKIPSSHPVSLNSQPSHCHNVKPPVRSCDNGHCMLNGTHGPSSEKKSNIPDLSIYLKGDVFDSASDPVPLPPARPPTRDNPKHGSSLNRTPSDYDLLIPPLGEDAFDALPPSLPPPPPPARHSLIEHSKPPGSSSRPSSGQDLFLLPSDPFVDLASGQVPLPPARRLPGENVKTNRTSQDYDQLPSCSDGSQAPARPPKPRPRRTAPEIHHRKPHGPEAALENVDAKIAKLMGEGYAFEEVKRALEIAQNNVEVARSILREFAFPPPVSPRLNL

`Cc1c(F)c(CN2CCC[C@H](C)C2)cc2c(=O)c(-c3cccc(C4(c5nncn5C)CC(C)C4)c3)coc12` (stereo in doubt) [Compound 121, 7-fluoro-8-methyl-3-(3-(cis-3-methyl-1-(4-methyl-4H-1,2,4-triazol-3-yl)cyclobutyl)phenyl)-6-(((s)-3-methylpiperidin-1-yl)methyl)-4H-chromen-4-one] and `Cc1cc(CN2CCC[C@H](C)C2)cc2c(=O)c(-c3cccc(C4(c5nncn5C)CC(C)C4)c3)coc12` (stereo partly drawn) [Compound 58, (S)-8-methyl-3-(3-(3-methyl-1-(4-methyl-4H-1,2,4-triazol-3-yl)cyclobutyl)phenyl)-6-((3-methylpiperidin-1-yl)methyl)-4H-chromen-4-one] are within 1.5-fold of each other in IC50: 10.1 nM for the first, 9.7 nM for the second.

First: CC1CC(c2cccc(-c3cnc4ccc(CN5CCC[C@H](C)C5)cn4c3=O)c2)(c2nncn2C)C1 (stereo partly drawn) [Compound 1, 3-[3-[3-methyl-1-(4-methyl-4H-1,2,4-triazol-3-yl)cyclobutyl]phenyl]-7-[[(3S)-3-methyl-1-piperidyl]methyl]pyrido[1,2-a]pyrimidin-4-one]
Second: CC1CC(c2cccc(-c3cnc4c(F)cc(CN5CCC[C@H](C)C5)cn4c3=O)c2)(c2nncn2C)C1 (stereo partly shown) [Compound 9]
The IC50 of the first is 1.7-fold lower: 76.6 nM for the first, 130 nM for the second.

`CC1CC(c2cccc(-c3cnc4c(C(F)(F)F)cc(CN5CCC[C@H](C)C5)cn4c3=O)c2)(c2nncn2C)C1` (stereo partly drawn) [Compound 2, 3-[3-[3-methyl-1-(4-methyl-4H-1,2,4-triazol-3-yl)cyclobutyl]phenyl]-7-[[(3S)-3-methyl-1-piperidyl]methyl]-9-(trifluoromethyl)pyrido[1,2-a]pyrimidin-4-one] and `C[C@H]1CCCN(Cc2cc(C(F)(F)F)c3ncc(-c4cccc([C@]5(c6nncn6C)C[C@@H](C)C5)c4)c(=O)n3c2)C1` [Compound 2-P1] are within 1.5-fold of each other in IC50: 40.3 nM for the first, 27.1 nM for the second.

First: COc1cc(CN2CCC[C@H](C)C2)cn2c(=O)c(-c3cccc(C4(c5nncn5C)CC(C)C4)c3)cnc12 (stereo partly shown) [Compound 3]
Second: Cc1cc(CN2CCC[C@H](C)C2)cn2c(=O)c(-c3cccc(C4(c5nncn5C)CC(C)C4)c3)cnc12 (stereo partly shown) [Compound 11]
The IC50 of the first is 9.5-fold higher: 296 nM for the first, 31.2 nM for the second.

Going from `CC1CC(c2cccc(-c3cnc4c(C(F)(F)F)cc(CN5CCO[C@H](C)C5)cn4c3=O)c2)(c2nncn2C)C1` (stereo partly shown) [Compound 4] to `CC1CC(c2cccc(-c3cnc4c(C(F)(F)F)cc(CN5CC6CC(C)(C6)C5)cn4c3=O)c2)(c2nncn2C)C1` (stereo not shown) [Compound 62], the IC50 falls from 268 nM to 23.6 nM (11-fold). The second is the more potent here.

Going from `C[C@H]1CCCN(Cc2cc(C(F)(F)F)c3ncc(-c4cccc(C5(Cc6nncn6C)COC5)c4)c(=O)n3c2)C1` [Compound 5] to `C[C@H]1CCCN(Cc2cc(C(F)(F)F)c3ncc(-c4cccc(C(c5nncn5C)C5CC5)c4)c(=O)n3c2)C1` (stereo partly drawn) [Compound 63, 3-(3-(cyclopropyl(4-methyl-4H-1,2,4-triazol-3-yl)methyl)phenyl)-7-(((S)-3-methylpiperidin-1-yl)methyl)-9-trifluoromethyl-4H-pyrido[1,2-a]pyrimidin-4-one], the IC50 falls from 450 nM to 41.6 nM (11-fold). The second is the more potent here.

`CC1CC(c2cccc(-c3cnc4c(Cl)cc(CN5CCC[C@H](C)C5)cn4c3=O)c2)(c2nncn2C)C1` (stereo partly shown) [Compound 10] and `CC1CC(c2cccc(-c3cnc4c(Br)cc(CN5CCC[C@H](C)C5)cn4c3=O)c2)(c2nncn2C)C1` (stereo partly shown) [Compound 14] are within 1.5-fold of each other in IC50: 42.9 nM for the first, 29.3 nM for the second.

Going from `CCc1cc(CN2CCC[C@H](C)C2)cn2c(=O)c(-c3cccc(C4(c5nncn5C)CC(C)C4)c3)cnc12` (stereo partly shown) [Compound 12] to `CC1CC(c2cccc(-c3cnc4c(C5CC5)cc(CN5CCC[C@H](C)C5)cn4c3=O)c2)(c2nncn2C)C1` (stereo partly shown) [Compound 13], the IC50 falls from 63.9 nM to 31.9 nM (2-fold).

Compared with `CC1CC(c2cccc(-c3cnc4c(C(F)(F)F)cc(CN5CC6CCC5C6)cn4c3=O)c2)(c2nncn2C)C1` (stereo not shown) [Compound 17], `CC1CC(c2cccc(-c3cnc4c(C(F)(F)F)cc(CN5CCN(C)C[C@@H]5C(C)C)cn4c3=O)c2)(c2nncn2C)C1` (stereo partly shown) [Compound 89] is 4-fold lower in IC50: 167 nM for the first, 41.6 nM for the second.

Compared with `CC1CC(c2cccc(-c3cnc4sc(CN5CCC[C@H](C)C5)cn4c3=O)c2)(c2nncn2C)C1` (stereo partly drawn) [Compound 59, (S)-6-(3-(3-methyl-1-(4-methyl-4H-1,2,4-triazol-3-yl)cyclobutyl)phenyl)-2-((3-methylpiperidin-1-yl)methyl)-5H-thiazolo[3,2-a]pyrimidin-5-one], `CC1CC(c2cccc(-c3coc4c(C5CC5)cc(CN5CCC[C@H](C)C5)cc4c3=O)c2)(c2nncn2C)C1` (stereo partly drawn) [Compound 74, (S)-8-cyclopropyl-3-(3-(3-methyl-1-(4-methyl-4H-1,2,4-triazol-3-yl)cyclobutyl)phenyl)-6-((3-methylpiperidin-1-yl)methyl)-4H-chromen-4-one] is 2.3-fold lower in IC50: 43.1 nM for the first, 19.1 nM for the second.

Going from `Cc1cc(CN2CCC[C@H](C)C2)cc2c(=O)c(-c3cccc(C(c4nncn4C)C4CC4)c3)coc12` (stereo partly drawn) [Compound 64, 3-(3-(cyclopropyl(4-methyl-4H-1,2,4-triazol-3-yl)methyl)phenyl)-8-methyl-6-(((S)-3-methylpiperidin-1-yl)methyl)-4H-chromen-4-one] to `Cc1cc(CN2CCC[C@H](C)C2)cc2c(=O)c(-c3cccc([C@](F)(c4nncn4C)C4CC4)c3)coc12` [Compound 120-P1], the IC50 rises from 38.4 nM to 212 nM (5.5-fold).

Going from `Cc1cc(CN2CCC[C@H](C)C2)cc2c(=O)c(-c3cncc(C4(c5nncn5C)CC(C)C4)c3)coc12` (stereo partly drawn) [Compound 65, (S)-8-methyl-3-(5-(3-methyl-1-(4-methyl-4H-1,2,4-triazol-3-yl)cyclobutyl)pyridin-3-yl)-6-((3-methylpiperidin-1-yl)methyl)-4H-chromen-4-one] to `CC1CC(c2cncc(-c3coc4c(C5CC5)cc(CN5CCC[C@H](C)C5)cc4c3=O)c2)(c2nncn2C)C1` (stereo partly drawn) [Compound 75, (S)-8-cyclopropyl-3-(5-(3-methyl-1-(4-methyl-4H-1,2,4-triazol-3-yl)cyclobutyl)pyridin-3-yl)-6-((3-methylpiperidin-1-yl)methyl)-4H-chromen-4-one], the IC50 falls from 17 nM to 7.4 nM (2.3-fold).

`Cc1cc(CN2CCC[C@H](C)C2)cc2c(=O)c(-c3cc(C(F)(F)F)cc(C4(c5nncn5C)CC(C)C4)c3)coc12` (stereo partly drawn) [Compound 66, (S)-8-methyl-3-(3-(3-methyl-1-(4-methyl-4H-1,2,4-triazol-3-yl)cyclobutyl)-5-trifluoromethylphenyl)-6-((3-methylpiperidin-1-yl)methyl)-4H-chromen-4-one] and `Cc1cc(CN2CCC[C@H](C)C2)cc2c(=O)c(-c3cccc(C4(c5nncn5C)CC(F)(F)C4)c3)coc12` [Compound 73, (S)-3-(3-(3,3-difluoro-1-(4-methyl-4H-1,2,4-triazol-3-yl)cyclobutyl)phenyl)-8-methyl-6-((3-methylpiperidin-1-yl)methyl)-4H-chromen-4-one] are within 1.5-fold of each other in IC50: 88.9 nM for the first, 64.9 nM for the second.

Going from `Cc1cc(CN2CCC[C@H](C)C2)cc2c(=O)c(-c3cccc(C(C)(C)c4nncn4C)c3)coc12` [Compound 67, (S)-8-methyl-3-(3-(2-(4-methyl-4H-1,2,4-triazol-3-yl)propan-2-yl)phenyl)-6-((3-methylpiperidin-1-yl)methyl)-4H-chromen-4-one] to `Cc1cc(CN2CCC[C@H](C)C2)cc2c(=O)c(-c3cccc([C@@](F)(c4nncn4C)C4CC4)c3)coc12` [Compound 120-P2, 3-(3-((R)-cyclopropylfluoro(4-methyl-4H-1,2,4-triazol-3-yl)methyl)phenyl)-8-methyl-6-(((S)-3-methylpiperidin-1-yl)methyl)-4H-chromen-4-one], the IC50 falls from 96.4 nM to 7.8 nM (12-fold). The second is the more potent here.

First: Cc1cc(CN2CCC[C@H](C)C2)cc2c(=O)c(-c3cccc(C4(c5nncn5C)CCO4)c3)coc12 (stereo partly drawn) [Compound 71, 8-methyl-3-(3-(2-(4-methyl-4H-1,2,4-triazol-3-yl)oxetan-2-yl)phenyl)-6-(((S)-3-methylpiperidin-1-yl)methyl)-4H-chromen-4-one]
Second: Cc1cc(CN2CCN(C)C[C@@H]2C(C)C)cc2c(=O)c(-c3cccc(C4(c5nncn5C)CC(C)C4)c3)coc12 (stereo partly shown) [Compound 88]
The IC50 of the first is 6.2-fold higher: 203 nM for the first, 32.7 nM for the second.

`Cc1cc(CN2CCC(F)(F)[C@H](C)C2)cc2c(=O)c(-c3cccc(C(F)(c4nncn4C)C4CC4)c3)coc12` (stereo partly drawn) [Compound 129, 3-(3-(cyclopropylfluoro(4-methyl-4H-1,2,4-triazol-3-yl)methyl)phenyl)-6-(((R)-4,4-difluoro-3-methylpiperidin-1-yl)methyl)-8-methyl-4H-chromen-4-one] showed an IC50 of 17.8 nM.

Test system: Jurkat T cells
Experiment: Jurkat T activation assay (IL-2 release, ELISA)
Assay type: cell-based
Conditions: IL-2 release of Jurkat T cells, Anti-Human CD3/CD28 stimulation, 48 hours, IL-2 ELISA
Protocol: Experiment purpose: Testing of effect of compounds on IL-2 release and activation of Jurkat T cells
Experimental method: 96-well cell plates (Corning) were coated with 2 μg/mL Anti-Human CD3 Clone OKT3 (BD) at 37° C. for 4 hours. 3-fold serial dilutions of compounds (final concentration 10 μM-4.6 nM, starting concentration 10 μM, 3-fold dilution, 8 points, 8th point being 4.6 nM) and 220 μL of 1.11×10^6/mL Jurkat T cells (ATCC) were incubated for 1 hour, 5 μL of 45 μg/mL Anti-Human CD28 Clone CD28.2 (BD) was added, mixed evenly, 100 μL was transferred to the aforementioned CD3-coated cell plate, cultured in a cell incubator at 37° C. for 48 hours, and the supernatant was collected and the IL-2 release was detected using an IL-2 ELISA kit (BD). EC50 was analyzed using Prism.

Compared with `Cc1c(F)c(CN2CCC[C@H](C)C2)cc2c(=O)c(-c3cccc(C4(c5nncn5C)CC(C)C4)c3)coc12` (stereo in doubt) [Compound 121, 7-fluoro-8-methyl-3-(3-(cis-3-methyl-1-(4-methyl-4H-1,2,4-triazol-3-yl)cyclobutyl)phenyl)-6-(((s)-3-methylpiperidin-1-yl)methyl)-4H-chromen-4-one], `Cc1cc(CN2CCC[C@H](C)C2)cc2c(=O)c(-c3cccc(C4(c5nncn5C)CC(C)C4)c3)coc12` (stereo partly drawn) [Compound 58, (S)-8-methyl-3-(3-(3-methyl-1-(4-methyl-4H-1,2,4-triazol-3-yl)cyclobutyl)phenyl)-6-((3-methylpiperidin-1-yl)methyl)-4H-chromen-4-one] is 2.2-fold lower in EC50: 250 nM for the first, 112 nM for the second.

`CC1CC(c2cccc(-c3cnc4c(C(F)(F)F)cc(CN5CCC[C@H](C)C5)cn4c3=O)c2)(c2nncn2C)C1` (stereo partly drawn) [Compound 2, 3-[3-[3-methyl-1-(4-methyl-4H-1,2,4-triazol-3-yl)cyclobutyl]phenyl]-7-[[(3S)-3-methyl-1-piperidyl]methyl]-9-(trifluoromethyl)pyrido[1,2-a]pyrimidin-4-one] and `C[C@H]1CCCN(Cc2cc(C(F)(F)F)c3ncc(-c4cccc([C@]5(c6nncn6C)C[C@@H](C)C5)c4)c(=O)n3c2)C1` [Compound 2-P1] are within 1.5-fold of each other in EC50: 634 nM for the first, 426 nM for the second.

Going from `CC1CC(c2cccc(-c3cnc4c(C(F)(F)F)cc(CN5CC6CC(C)(C6)C5)cn4c3=O)c2)(c2nncn2C)C1` (stereo not shown) [Compound 62] to `Cc1cc(CN2CCC[C@H](C)C2)cc2c(=O)c(-c3cncc(C4(c5nncn5C)CC(C)C4)c3)coc12` (stereo partly drawn) [Compound 65, (S)-8-methyl-3-(5-(3-methyl-1-(4-methyl-4H-1,2,4-triazol-3-yl)cyclobutyl)pyridin-3-yl)-6-((3-methylpiperidin-1-yl)methyl)-4H-chromen-4-one], the EC50 falls from 525 nM to 265 nM (2-fold).
